Measured values taken from patent publication US11110080B2, “Small molecule inhibitors of bacterial efflux pumps and methods of using same” (The Regents of the University of Colorado, a body Corporate, priority 2017, dated 2021).
“Also recorded” adds a separate entry of the source.

Columns and labels:
[1] = Log D, solubility and predicted bioavailability; format: physicochemical; conditions: aqueous
HepG2 human liver cells = assay: LDH cytotoxicity assay; format: cell-based; conditions: 16 hours
Description: Cytoxocity was determined using the Pierce Lactate Dehydrogenase (LDH) Cytoxicity Assay. HepG2 liver cells were plated at 5×10^4 in 96 well tissue culture plates and allowed to settle overnight. Cells were treated with a 2-fold dilutions of each compound for 16 hours. Fifty microliters of conditioned media was mixed with the LDH assay reagent, incubated for 30 minutes, and absorbance was read at 490 and 680 nm. Curve fitting to determine CC50s was performed using GraphPad Prism; the CC50 is defined as 50% of the maximum LDH release as determined by lysed macrophages. There was no spontaneous LDH release or LDH present in the media.

wild-type S.Tm = assay: Growth in broth with antimicrobial peptides (polymyxin B, LL-37) and EPMs; format: cell-based, Salmonella enterica serovar Typhimurium; conditions: polymyxin B 5 μg/ml (⅛ MIC) + 25 μM EPM
Source text: Next, it was investigated how EPMs might lead to bacterial clearance within host cells. […] Instead, EPMs may synergize with a host antimicrobial(s) that is effluxed by EPs. Two S.Tm EPs are necessary for infection of macrophages and mice (FIG. 10). The first EP, MacAB, is important for defense against ROS. The second S.Tm EP, AcrAB, is a homolog of MtrCDE, an EP in Neisseria gonorrhoeae which exports host antimicrobial peptides (AMPs). AcrAB thus likely exports AMPs as well as a variety of other substrates including antibiotics, dyes, and detergents. To test whether the EPMs synergize with macrophage defenses, wild-type bacteria was exposed in broth to ROS or AMPs in the presence of EPMs. […] Next, the two AMPs were tested: polymyxin B is a model peptide produced by bacteria; LL-37 is a human cathelicidin produced by macrophages.
Overnight Salmonella cultures were washed 3 times in PBS and diluted to an OD of 0.01 in Mueller Hinton Broth in 96-well flat bottom plates. Compound was added using a pin tool (CyBio) or manually, yielding a final concentration of no more than 1% DMSO. Plates were grown at 37° C. shaking and OD600 was monitored using a BioTek Eon incubator shaker microplate absorbance reader. For experiments in defined media, bacteria were grown in M9 minimal media supplemented with 100 mM Tris pH 7.4, 0.35% glycerol, 0.002% histidine, 10 mM MgCl2, and 0.1% casamino acids. […]

S.Tm efflux pumps = assay: Nile Red efflux assay; format: cell-based, Salmonella enterica serovar Typhimurium; conditions: for glucose-activated efflux of Nile Red: 100 μM; for Nile Red efflux after washout of compound: 15 minutes with compound, washed, then glucose; for Nile Red fluorescence in the absence of glucose (basal loss): no glucose
Source text: Because Hoechst and other dyes commonly used to assess efflux bind cellular components, direct measurement of efflux is not possible using these methods; instead, the Hoechst assay measures dye accumulation, the net result of entry and efflux. Further, the slow off-rate of Hoechst entails that efflux pumps have no effect on dye already bound to DNA. As a result, compounds which increase Hoechst accumulation may actually enhance dye entry by altering porins or disrupting the membrane. To more specifically measure efflux pump activity, a second technique was employed using the dye Nile Red, a lipophilic membrane-partitioning dye which fluoresces in nonpolar environments. Because Nile Red is not known to bind cellular components, to directly observe efflux cells were preloaded with the dye in the absence of glucose to reduce efflux pump activity (FIG. 7A). Upon addition of glucose, bacteria rapidly effluxed Nile Red and fluorescence returned to baseline levels (FIG. 7B, top panel). […] The initial measured fluorescence was lower for DMSO-treated cells (upper dotted line) than for PAβN-treated cells due to glucose-independent efflux during sample preparation (FIG. 8A). Next, it was determined whether efflux pump activity is restored after removal of PAβN. Bacteria were incubated with compound for 15 minutes, pelleted and resuspended in buffer lacking compound, and then stimulated with glucose (FIGS. 7C, 7E).
Nile Red assays were adapted from an established protocol. Briefly, overnight Salmonella cultures were grown in Mueller-Hinton cation-adjusted broth (Sigma), washed, and resuspended at an OD600 of 2.0. Cells were incubated in 10 μM Nile Red for 3 hours at 37° C. with aeration, then moved to room temperature for 1 hour. After pelleting at 2000× g, dye-loaded cells were aliquoted and combined with compound at the indicated concentrations. Two hundred microliters was loaded into 96-well black walled plates (Greiner) and read using a Varioskan Flash Multimode Reader with 540 nm excitation and 625 nm emission filters. We observed that during loading into plates (˜20 minutes), bacteria were able to efflux Nile Red even in the absence of glucose (FIG. 8A). To activate efflux, glucose was added to a final concentration of 2 mM. In some experiments, bacteria were treated with drug for 15 minutes, pelleted at 16,000×g, resuspended in fresh buffer, and stimulated with 2 mM glucose. All wash and incubation steps were performed in PBS with 1 mM MgCl2; incubations were performed in glass tubes to reduce adhesion of Nile Red.

[2] = system: S.Tm infection of C57BL/6 mice; assay: Mouse infection with S.Tm, tetracycline and EPM35 treatment
Description: Finally, whether EPM35 increased sensitivity of 510801 and wild-type S.Tm to tetracycline in vivo was tested. 7-week-old C57BL/6 mice were intraperitoneally infected with 1×10^4 bacteria. At 30 minutes and 24 hours post-infection, 25 mg/kg tetracycline and 50 mg/kg EPM35 was injected. […] Thus, the experiment was ended at 30 hours post-infection; the spleen and liver were harvested and plated to determine bacterial CFU.
These studies were carried out in strict accordance with the recommendations in the Guide for the Care and Use of Laboratory Animals of the National Institutes of Health, and all protocols were approved by the University of Colorado Institutional Committees for Biosafety and for Animal Care and Use. Bacteria were grown overnight in LB, then diluted in PBS. Seven week old C57/B16 female mice were intraperitoneally injected with 1×10^4S.Tm in 100 μL. Thirty minutes later, mice received two intraperitoneal injections: 25 mg/kg tetracycline in 150 μL PBS or PBS alone, and 50 mg/kg EPM35 in 100 μL DMSO or DMSO alone. Drug injections were repeated at 24 hours post-infection. At 30 hours post-infection, mice were humanely euthanized using carbon dioxide asphyxiation followed by cervical dislocation. Spleens and livers were harvested, homogenized, diluted in PBS, and plated to enumerate S.Tm CFUs.

| SMILES | solubility [1] | toxicity in HepG2 LDH assays (HepG2 human liver cells) | growth on co-treatment with polymyxin B (wild-type S.Tm) | glucose-activated efflux of Nile Red (S.Tm efflux pumps) | Nile Red efflux after washout of compound (S.Tm efflux pumps) | Nile Red fluorescence in the absence of glucose (basal loss) (S.Tm efflux pumps) | signs in treated mice ([2]; 50 mg/kg intraperitoneal at 30 minutes and 24 hours post-infection) | bacterial CFU in spleen and liver, co-treatment with tetracycline ([2]; S10801-infected mice, 25 mg/kg tetracycline + 50 mg/kg EPM35) | enhanced decrease of CFU on co-treatment with tetracycline ([2]; mice infected with wild-type bacteria, 25 mg/kg tetracycline + 50 mg/kg EPM35) |
| --- | --- | --- | --- | --- | --- | --- | --- | --- | --- |
| Cc1ccc(Sc2cccc3nc(N)nc(N)c23)cc1 [EPM43] | poor aqueous solubility | less toxic to HepG2 cells than the other EPMs | completely inhibited growth | only partially inhibited efflux | partially effluxed Nile Red after compound washout; also recorded: partially restored Nile Red export | inhibit basal loss of Nile Red |  |  |  |
| OC(COc1ccc(Cl)c(Cl)c1)CN1CCC(Nc2nccc(C(F)(F)F)n2)CC1 (stereo not shown) [EPM35] |  |  | completely inhibited growth | fully inhibited efflux | remained unable to efflux | inhibit basal loss of Nile Red | Distress was observed | appeared to further reduce bacterial CFU | not observed |
